This is an account of results in article PMC8123555, “Precision targeting of the plasminogen activator inhibitor‐1 mechanism increases efficacy of fibrinolytic therapy in empyema” (Physiological Reports, 2021).

The subject of one series is PAI‐1. Conditions: alanine mutations of positively charged residues in the 37-loop; ref Benedict et al., 1995; Florova et al., 2018; Keyt et al., 1994; cited from earlier work. An excerpt:
Plasminogen Activator Inhibitor‐1 (PAI‐1) is a mechanism‐based inhibitor of tissue type (tPA) and urokinase (uPA) plasminogen activators (PAs) (Carrell et al., 1991; Chaillan‐Huntington et al., 1997; Mourik et al., 1984) used for fibrinolytic therapy. Levels of PAI‐1 increase by up to three orders of magnitude in empyema (pleural sepsis), and organizing pleural injury (Aleman et al., 2003; Chung et al., 2005; Philip‐Joet et al., 1995), limiting endogenous and exogenous plasminogen activating activity that could help prevent or treat uncontrolled fibrin deposition induced by inflammation. Previ ...

The conditions of series [1]: rabbit, in vivo. The method, then: All animal procedures were approved by the Institutional Animal Care and Use Committee at The University of Texas Health Science Center at Tyler (IACUC protocols 499,616,617). Studies used female, pathogen‐free New Zealand white rabbits (3.0–3.6 kg; average age 18 weeks) from Charles River Laboratories (Wilmington, MA). These studies required a total of 107 rabbits, 43 for the model of TCN‐induced pleural injury and 64 for the model of empyema. […] Briefly, a 3 ml mixture of TCN in ascorbic acid (20 mg/ml TCN (T3258, Sigma‐Aldrich), 2.5 mg/ml ascorbic acid (A7506, Sigma‐Aldrich) and lidocaine (1 mg/ml, UTHCT Compounding Pharmacy), was delivered by intrapleural injection. A model of acute empyema in rabbits was induced as described previously (Komissarov et al., 2016). Briefly, 1–5 × 10^8 cfu of S. pneumoniae (D39 strain, National Collection of Type Cultures, Salisbury UK) in 3 ml of 0.5% brain‐heart infusion agar (BD 238400, BD Diagnostic Systems) was delivered by intrapleural injection. Clavomox (10 mg/kg, subcutaneous, daily for 1–3 days as clinically indicated by Attending Veterinarian) (10000485, Zoetis) was started at 28–30 h post‐infection. Accumulation of pleural fluid and fibrin deposition was monitored using ultrasonography; detailed in the ultrasonography subsection. After 48 or 72 h for TCN‐induced pleural injury and empyema, respectively, intrapleural therapeutics were administered depending on treatment group via an 18‐gauge catheter, which was flushed with 0.5 ml PBS. In all experiments, samples of pleural fluids (0.5 ml) from each rabbit were collected prior to and at 10, 20, and 40 min after PAI‐1‐TFT and processed for later analysis (Florova et al., 2015; Karandashova et al., 2013; Komissarov et al., 2013, 2016). […] Animals were monitored carefully for signs of distress, pain, and worsening clinical status. […]
The residual DSP in pleural fluid samples was determined using LC MS/MS. […]

The next series is described as follows: in vivo. As to conditions: rabbit. The method, then:
All animal procedures were approved by the Institutional Animal Care and Use Committee at The University of Texas Health Science Center at Tyler (IACUC protocols 499,616,617). Studies used female, pathogen‐free New Zealand white rabbits (3.0–3.6 kg; average age 18 weeks) from Charles River Laboratories (Wilmington, MA). These studies required a total of 107 rabbits, 43 for the model of TCN‐induced pleural injury and 64 for the model of empyema. […] Briefly, a 3 ml mixture of TCN in ascorbic acid (20 mg/ml TCN (T3258, Sigma‐Aldrich), 2.5 mg/ml ascorbic acid (A7506, Sigma‐Aldrich) and lidocaine (1 mg/ml, UTHCT Compounding Pharmacy), was delivered by intrapleural injection. A model of acute empyema in rabbits was induced as described previously (Komissarov et al., 2016). Briefly, 1–5 × 10^8 cfu of S. pneumoniae (D39 strain, National Collection of Type Cultures, Salisbury UK) in 3 ml of 0.5% brain‐heart infusion agar (BD 238400, BD Diagnostic Systems) was delivered by intrapleural injection. Clavomox (10 mg/kg, subcutaneous, daily for 1–3 days as clinically indicated by Attending Veterinarian) (10000485, Zoetis) was started at 28–30 h post‐infection. Accumulation of pleural fluid and fibrin deposition was monitored using ultrasonography; detailed in the ultrasonography subsection. After 48 or 72 h for TCN‐induced pleural injury and empyema, respectively, intrapleural therapeutics were administered depending on treatment group via an 18‐gauge catheter, which was flushed with 0.5 ml PBS. In all experiments, samples of pleural fluids (0.5 ml) from each rabbit were collected prior to and at 10, 20, and 40 min after PAI‐1‐TFT and processed for later analysis (Florova et al., 2015; Karandashova et al., 2013; Komissarov et al., 2013, 2016). Anesthesia, postoperative pain medication, and animal care were provided as reported previously (Florova et al., 2015; Karandashova et al., 2013; Komissarov et al., 2013, 2016). with details provided in the supplement. Animals were monitored carefully for signs of distress, pain, and worsening clinical status. Euthanasia was accomplished using intravenous injection of 1 ml of commercial euthanasia solution (sodium pentobarbital 390 mg/ml and phenytoin 50 mg/ml) followed by exsanguination.
The residual DSP in pleural fluid samples was determined using LC MS/MS. Briefly, collected samples were extracted using acetonitrile, cleaned with Microcon centrifugal filters (MRCPRT010, MilliporeSigma) and injected via autosampler onto a Pinnacle DB C8 Column (9413332, Restek) reverse‐phase column operated at a flow rate of 200 μl/min. A gradient elution method using solvent A (99% H2O, 1% acetonitrile, 0.05% TFA) for 5 min, a gradient to 100% solvent B (1% H2O, 99% acetonitrile, 0.05% TFA) over 25 min, and 100% solvent B for 2 min was employed. […]

The conditions of series [2]: rabbit, in vivo. The method, then:
(§1) FIGURE 7 Low dose PAI‐1‐TFT induces no intrapleural bleeding. Pleural fluids from rabbits with TCN‐induced (a) or S. pneumoniae‐induced (b) pleural injury were collected at necropsy and red blood cells (RBC) were counted using a Beckman Coulter. (a) Animals with TCN‐induced pleural injury were treated (from left to right) with vehicle control (n = 6); 62.5 µg/kg of scuPA alone (n = 6); and with 2.0 mg/kg DSP (n = 6); 72.5 µg/kg of sctPA alone (n = 5), and with 2.0 mg/kg DSP (n = 6). (b) Animals with infectious pleural injury were treated (from left to right) with vehicle control (n = 6); 0.25 mg/kg of sctPA alone (n = 5), and with 8.0 mg/kg DSP (n = 6), 0.5 mg/kg of sctPA alone (n = 6), and with 8.0 mg/kg DSP (n = 6), 0.5 mg/kg of scuPA alone (n = 9), and with 8.0 mg/kg DSP (n = 3). […] Data are presented as box and whisker plots (all points shown)
This is another data set of the same source.

The nature of series [3]: Intrapleural bleeding, pleural fluid RBC counts, empyema. It is filed as in vivo, rabbit. The method, then:
as §1

Like-named read-outs stand apart in the source and are kept apart here. Where no end group is shown, it is not given here.

As to tenecteplase, the “Rate of reaction with PAI-1 relative to the WT enzymes” value in the series on PAI‐1 is recorded as “almost two orders of magnitude slower”.

With EEIIMD [DSP, EEIIMD], in series [1], the “Apparent first order rate constant of DSP clearance (kclr), slower phase” value was in the range of 0.03 to 0.07 min⁻¹; the “DSP in pleural fluid at 24 h” value is reported as “No DSP was detected”; the “Presence of DSP in pleural fluid after treatment” value was “over 40 min”. Further, in “in vivo” (female, New Zealand white, 8 mg/kg), the level at 40 min was > 300 µg/mL. In addition, in the series “in vivo”, the “Apparent first order rate constant of DSP clearance (kclr), slower phase” value was 0.03 to 0.07 min⁻¹; the “DSP in pleural fluid at 24 h” value is given as “No DSP was detected”; the “Presence of DSP in pleural fluid after treatment” value is “over 40 min”. Also, the “Bleeding accompanying PAI-1-TFT” value in series [2] was “no apparent local or systemic bleeding”. Moreover, the “Bleeding accompanying PAI-1-TFT” value in series [3] (DSP with plasminogen activator, empyema) was “no apparent local or systemic bleeding”. Further, in series [3] (any dose of DSP alone or in combination with plasminogen activator, pleural fluid at necropsy, Beckman Coulter), the “Pleural fluid RBC counts” value is recorded as “no statistical difference”.
